{"source": "patent US20050282205A1", "about": "“GLUT5 transporters expressed in cancer cells” (Xenoport, Inc., priority 2004, published 2005)", "target": "T1, Human GLUT5 (Homo sapiens, UniProt P22732)", "T1 construct": "expressed in transfected cells; host or cells: Xenopus oocytes injected with in vitro transcribed GLUT5 cRNA", "T1 sequence (P22732 1-501)": "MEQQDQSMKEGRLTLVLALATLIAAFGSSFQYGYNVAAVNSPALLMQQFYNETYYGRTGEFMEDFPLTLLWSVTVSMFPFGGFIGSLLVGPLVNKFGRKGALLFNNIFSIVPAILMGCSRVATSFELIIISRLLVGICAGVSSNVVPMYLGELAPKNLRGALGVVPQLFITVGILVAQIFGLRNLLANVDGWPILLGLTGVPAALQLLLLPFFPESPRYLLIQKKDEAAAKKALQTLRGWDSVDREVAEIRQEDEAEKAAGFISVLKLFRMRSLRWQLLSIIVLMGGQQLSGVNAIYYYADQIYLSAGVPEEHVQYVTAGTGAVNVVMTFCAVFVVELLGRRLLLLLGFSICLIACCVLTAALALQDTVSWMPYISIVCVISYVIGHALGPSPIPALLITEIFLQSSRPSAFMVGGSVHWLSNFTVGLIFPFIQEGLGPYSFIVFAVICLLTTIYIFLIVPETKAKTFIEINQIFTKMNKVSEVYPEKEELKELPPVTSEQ", "test": "3H-fructose uptake in Xenopus oocytes expressing GLUT5", "type": "cell-based", "details": "Xenopus oocytes injected with GLUT5 cRNA, ND96 buffer, 3 minutes, scintillation counting (FIG. 2)", "description": "To assess transport function of a specific transporter protein, it can be desirable to clone the cDNA and express the protein in cells that have low endogenous transport activity. Human GLUT5 was cloned by PCR, fully sequenced, and subcloned into plasmids that can be used for expression in mammalian cells or Xenopus oocytes. […] For expression in Xenopus oocytes, in vitro GLUT5 cRNA was prepared and injected into defoliculated oocytes.\nOocytes expressing GLUT5 or control oocytes not expressing GLUT5 were incubated in an oocyte ringers (ND96) buffer (90 mM NaCl, 10 mM HemiNa HEPES, 2 mM KCl, 1 mM MgCl, 1.8 mM CaCl2) containing 0.5% bovine serum albumin and 3H-fructose ([…]) for 3 minutes. Oocytes were washed and uptake of radiolabel quantified by scintillation counting."}
{"smiles": "O=C(CO)[C@@H](O)[C@H](O)[C@H](O)CO", "note": "[^3H-fructose, fructose]", "values": [{"measurement": "uptake of radiolabel into oocytes expressing GLUT5 versus noninjected controls", "result": "higher levels of ^3H-fructose uptake than noninjected controls"}]}
